Reference: patent US10568344B2, “Methods of improving animal performance” (Novozymes A/S, priority 2015, dated 2020)
Marks after values point to notes of the source that are not given here.

Tests used:
[1] = In vivo broiler trial 2, growth performance; parameters: species or system male broiler chickens; details: for FCR / FCR, Relative to C (%) / Feed intake / Feed intake, Relative to C (%) / Weight gain / Weight gain, Relative to C (%): 10 mg/kg feed; for Improvement of FCR compared to the control diet / Improvement of weight gain compared to the control diet: 10 mg/kg
Protocol: No additional enzymes (e.g. phytase) were added to the feed. The experimental diets (Starter and Grower) were based on soybean meal, wheat and rye (12%) as main ingredients (Table 6). The diets were formulated to contain 222 g crude protein and 12.5 MJ/kg MEN for the starter period and 204 g crude protein and 12.7 MJ/kg MEN for the grower period.

[2] = In vivo broiler trial 3, growth performance; parameters: species or system male broiler chickens; Motality: unit not given here
Protocol: The in vivo trial was carried out as described in example 7, except the feed was supplemented with the GH25 lysozyme (SEQ ID NO: 1) at 12.5 or 25 mg per kg feed, the GH24 lysozyme (SEQ ID NO: 4) at 12.5 or 25 mg per kg feed or with Avilamycin at an inclusion level of 10 mg/kg. No additional enzymes (e.g. phytase) were added to the feed. The experimental diets (Starter, Grower and Finisher) were based on soybean meal, wheat and rye (12%) as main ingredients (Table 8). The diets were formulated to contain 225 g crude protein and 12.5 MJ/kg MEN for the starter period, 215 g crude protein and 12.8 MJ/kg MEN for the grower period and 205 g crude protein and 13.0 MJ/kg MEN for the finisher period.

[3] = In vivo broiler trial 1, growth performance; parameters: species or system male broiler chickens (ROSS PM3); details: for Improvement of FCR compared to the control diet / Improvement of weight gain compared to the control diet: 10 mg/kg; for FCR / FCR, Relative to C (%) / Feed intake / Feed intake, Relative to C (%) / Weight gain / Weight gain, Relative to C (%): 10 mg/kg feed
[4] = Finisher (d 36-42), 10 mg/kg feed
[5] = Grower (d 22-36), 10 mg/kg feed
[6] = Starter (d 1-22), 10 mg/kg feed
[7] = Whole period (d 1-42), 10 mg/kg feed

## COC[C@H]1O[C@@H](OC2OC[C@@H]3O[C@]4(O[C@H]3[C@H]2OC(=O)C(C)C)O[C@H](C)[C@@](O)(C(C)=O)[C@@H]2OCO[C@H]24)[C@@H](OC)[C@@H](O)[C@@H]1O[C@@H]1O[C@H](C)[C@H](OC)[C@H](O[C@H]2C[C@@]3(C)OC4(C[C@@H](O)[C@H](O[C@H]5C[C@@H](O)[C@H](OC(=O)c6c(C)c(Cl)c(O)c(Cl)c6OC)[C@@H](C)O5)[C@@H](C)O4)O[C@@H]3[C@@H](C)O2)[C@H]1O (some centres unmarked) [Avilamycin, reference compound]
[1]; Grower (d 22-36)
  FCR: 1.621^b
  FCR, Relative to C (%): 94.2%
  Feed intake: 2599 g/b
  Feed intake, Relative to C (%): 95.2%
  Weight gain: 1605 g/b
  Weight gain, Relative to C (%): 101.2%
[1]; Starter (d 1-22)
  FCR: 1.421^a
  FCR, Relative to C (%): 103%
  Feed intake: 1517^a g/b
  Feed intake, Relative to C (%): 103.1%
  Weight gain: 1070 g/b
  Weight gain, Relative to C (%): 100.2%
[1]; Whole period (d 1-36)
  FCR: 1.537^c
  FCR, Relative to C (%): 97.4%
  Feed intake: 4111 g/b
  Feed intake, Relative to C (%): 98.1%
  Weight gain: 2675 g/b
  Weight gain, Relative to C (%): 100.8%
[1]; day 1 to day 36
  Improvement of FCR compared to the control diet: 2.6%
[1]; grower period
  Improvement of FCR compared to the control diet: 5.8%
  Improvement of weight gain compared to the control diet: 1.2%
[1]; starter period
  Improvement of FCR compared to the control diet: No improvement
  Improvement of weight gain compared to the control diet: No improvement
[2]; [4]
  FCR: 1.982
  FCR, Relative to C (%): 101.1%
  Feed intake: 1460 g/b
  Feed intake, Relative to C (%): 98.2%
  Weight gain: 738 g/b
  Weight gain, Relative to C (%): 97.0%
[2]; [5]
  FCR: 1.683
  FCR, Relative to C (%): 97.7%
  Feed intake: 2242 g/b
  Feed intake, Relative to C (%): 98.1%
  Weight gain: 1334 g/b
  Weight gain, Relative to C (%): 100.4%
[2]; [6]
  FCR: 1.452
  FCR, Relative to C (%): 100.8%
  Feed intake: 1593 g/b
  Feed intake, Relative to C (%): 101.0%
  Weight gain: 1102 g/b
  Weight gain, Relative to C (%): 100.6%
[2]; [7]
  EPEF: 397
  EPEF, Relative to C (%): 95.0%
  FCR: 1.669
  FCR, Relative to C (%): 99.3%
  Feed intake: 5312 g/b
  Feed intake, Relative to C (%): 99.3%
  Motality: 12.5
  Weight gain: 3184 g/b
  Weight gain, Relative to C (%): 99.9%
[2]; whole period, 10 mg/kg
  EPEF worse than NC diet by: 5.0%
  FCR improvement compared to NC diet: 0.7%
[3]
  Improvement of FCR compared to the control diet: 2.3%
[3]; Grower (d 22-36)
  FCR: 1.694^abc
  FCR, Relative to C (%): 97.7%
  Feed intake: 2976^ab g/b
  Feed intake, Relative to C (%): 97.6%
  Weight gain: 1757 g/b
  Weight gain, Relative to C (%): 99.8%
[3]; Starter (d 1-22)
  FCR: 1.695^c
  FCR, Relative to C (%): 93.3%
  Feed intake: 1943 g/b
  Feed intake, Relative to C (%): 97.4%
  Weight gain: 1147 g/b
  Weight gain, Relative to C (%): 104.1%
[3]; Whole period (d 1-36)
  FCR: 1.694^bc
  FCR, Relative to C (%): 96%
  Feed intake: 4918^ab g/b
  Feed intake, Relative to C (%): 97.5%
  Weight gain: 2903 g/b
  Weight gain, Relative to C (%): 101.5%
[3]; day 1 to day 36
  Improvement of FCR compared to the control diet: 4%
  Improvement of weight gain compared to the control diet: 1.5%
[3]; starter period
  Improvement of weight gain compared to the control diet: 4.1%
